# Assay: Safety (adverse events, NCI CTCAE v4.0), dose-escalation phase
# [1] = dose-escalation QD × 3dQW 6–20 mg
# [2] = dose-escalation QD × 5dQW 7–13 mg
# Procedure: Patients who received ≥1 dose of sapanisertib were included in the safety population. […] Adverse events (AEs) were assessed using the National Cancer Institute Common Terminology Criteria for Adverse Events, v4.0. Patients were provided with a home blood-glucose meter to monitor their fasting predose blood-glucose measurements to assess hyperglycaemia as an on-target AE and PD marker.
structure (smiles),measurement,setting,value
CC(C)n1nc(-c2ccc3oc(N)nc3c2)c2c(N)ncnc21 [Sapanisertib],On-study deaths within 30 days of last dose,both phases,7
same,"Acute kidney injury, treatment-related AE",dose-escalation QD 2–7 mg,1 (3) n (%)
same,"Anaemia, treatment-related AE",dose-escalation QD 2–7 mg,3 (10) n (%)
same,Any AE,dose-escalation QD 2–7 mg,31 (100) n (%)
same,Any AE resulting in dose modification/interruption,dose-escalation QD 2–7 mg,22 (71) n (%)
same,Any AE resulting in treatment discontinuation,dose-escalation QD 2–7 mg,11 (35) n (%)
same,Any SAE,dose-escalation QD 2–7 mg,13 (42) n (%)
same,Any grade ≥3 AE,dose-escalation QD 2–7 mg,19 (61) n (%)
same,Any treatment-related AE,dose-escalation QD 2–7 mg,31 (100) n (%)
same,Any treatment-related SAE,dose-escalation QD 2–7 mg,4 (13) n (%)
same,Any treatment-related grade ≥3 AE,dose-escalation QD 2–7 mg,14 (45) n (%)
same,"Asthenia, treatment-related AE",dose-escalation QD 2–7 mg,6 (19) n (%)
same,"Asthenia, treatment-related grade ≥3 AE",dose-escalation QD 2–7 mg,1 (3) n (%)
same,"Blood creatinine increased, treatment-related AE",dose-escalation QD 2–7 mg,7 (23) n (%)
same,"Decreased appetite, treatment-related AE",dose-escalation QD 2–7 mg,11 (35) n (%)
same,"Dehydration, treatment-related AE",dose-escalation QD 2–7 mg,3 (10) n (%)
same,"Dehydration, treatment-related grade ≥3 AE",dose-escalation QD 2–7 mg,0 (0) n (%)
same,"Diarrhoea, treatment-related AE",dose-escalation QD 2–7 mg,11 (35) n (%)
same,"Diarrhoea, treatment-related grade ≥3 AE",dose-escalation QD 2–7 mg,1 (3) n (%)
same,"Dry mouth, treatment-related AE",dose-escalation QD 2–7 mg,5 (16) n (%)
same,"Dysgeusia, treatment-related AE",dose-escalation QD 2–7 mg,8 (26) n (%)
same,"Dyspepsia, treatment-related AE",dose-escalation QD 2–7 mg,1 (3) n (%)
same,"Fatigue, treatment-related AE",dose-escalation QD 2–7 mg,8 (26) n (%)
same,"Fatigue, treatment-related grade ≥3 AE",dose-escalation QD 2–7 mg,0 (0) n (%)
same,"Headache, treatment-related AE",dose-escalation QD 2–7 mg,0 (0) n (%)
same,"Hypercholesterolemia, treatment-related AE",dose-escalation QD 2–7 mg,5 (16) n (%)
same,"Hyperglycaemia, treatment-related AE",dose-escalation QD 2–7 mg,25 (81) n (%)
same,"Hyperglycaemia, treatment-related grade ≥3 AE",dose-escalation QD 2–7 mg,6 (19) n (%)
same,"Hypophosphatemia, treatment-related AE",dose-escalation QD 2–7 mg,0 (0) n (%)
same,"Hypophosphatemia, treatment-related grade ≥3 AE",dose-escalation QD 2–7 mg,0 (0) n (%)
same,"Lymphopenia, treatment-related grade ≥3 AE",dose-escalation QD 2–7 mg,2 (6) n (%)
same,"Nausea, treatment-related AE",dose-escalation QD 2–7 mg,13 (42) n (%)
same,"Nausea, treatment-related grade ≥3 AE",dose-escalation QD 2–7 mg,0 (0) n (%)
same,On-study deaths,dose-escalation QD 2–7 mg,1 (3) n (%)
same,"Pruritus generalised, treatment-related AE",dose-escalation QD 2–7 mg,8 (26) n (%)
same,"Pruritus generalised, treatment-related grade ≥3 AE",dose-escalation QD 2–7 mg,2 (6) n (%)
same,"Pruritus, treatment-related AE",dose-escalation QD 2–7 mg,2 (6) n (%)
same,"Rash maculo-papular, treatment-related AE",dose-escalation QD 2–7 mg,3 (10) n (%)
same,"Rash maculo-papular, treatment-related grade ≥3 AE",dose-escalation QD 2–7 mg,2 (6) n (%)
same,"Rash, treatment-related AE",dose-escalation QD 2–7 mg,8 (26) n (%)
same,"Rash, treatment-related grade ≥3 AE",dose-escalation QD 2–7 mg,2 (6) n (%)
same,"Stomatitis (includes oropharyngeal pain and mucosal inflammation), treatment-related AE",dose-escalation QD 2–7 mg,11 (35) n (%)
same,"Stomatitis, treatment-related grade ≥3 AE",dose-escalation QD 2–7 mg,0 (0) n (%)
same,"Thrombocytopenia, treatment-related grade ≥3 AE",dose-escalation QD 2–7 mg,2 (6) n (%)
same,"Vomiting, treatment-related AE",dose-escalation QD 2–7 mg,8 (26) n (%)
same,"Weight decreased, treatment-related AE",dose-escalation QD 2–7 mg,1 (3) n (%)
same,"Acute kidney injury, treatment-related AE",[1],0 (0) n (%)
same,"Anaemia, treatment-related AE",[1],1 (3) n (%)
same,Any AE,[1],33 (100) n (%)
same,Any AE resulting in dose modification/interruption,[1],21 (64) n (%)
same,Any AE resulting in treatment discontinuation,[1],7 (21) n (%)
same,Any SAE,[1],17 (52) n (%)
same,Any grade ≥3 AE,[1],25 (76) n (%)
same,Any treatment-related AE,[1],32 (97) n (%)
same,Any treatment-related SAE,[1],9 (27) n (%)
same,Any treatment-related grade ≥3 AE,[1],19 (58) n (%)
same,"Asthenia, treatment-related AE",[1],10 (30) n (%)
same,"Asthenia, treatment-related grade ≥3 AE",[1],4 (12) n (%)
same,"Blood creatinine increased, treatment-related AE",[1],2 (6) n (%)
same,"Decreased appetite, treatment-related AE",[1],17 (52) n (%)
same,"Dehydration, treatment-related AE",[1],1 (3) n (%)
same,"Dehydration, treatment-related grade ≥3 AE",[1],1 (3) n (%)
same,"Diarrhoea, treatment-related AE",[1],13 (39) n (%)
same,"Diarrhoea, treatment-related grade ≥3 AE",[1],0 (0) n (%)
same,"Dry mouth, treatment-related AE",[1],2 (6) n (%)
same,"Dysgeusia, treatment-related AE",[1],4 (12) n (%)
same,"Dyspepsia, treatment-related AE",[1],1 (3) n (%)
same,"Fatigue, treatment-related AE",[1],12 (36) n (%)
same,"Fatigue, treatment-related grade ≥3 AE",[1],0 (0) n (%)
same,"Headache, treatment-related AE",[1],3 (9) n (%)
same,"Hypercholesterolemia, treatment-related AE",[1],4 (12) n (%)
same,"Hyperglycaemia, treatment-related AE",[1],22 (67) n (%)
same,"Hyperglycaemia, treatment-related grade ≥3 AE",[1],7 (21) n (%)
same,"Hypophosphatemia, treatment-related AE",[1],5 (15) n (%)
same,"Hypophosphatemia, treatment-related grade ≥3 AE",[1],3 (9) n (%)
same,"Lymphopenia, treatment-related grade ≥3 AE",[1],2 (6) n (%)
same,"Nausea, treatment-related AE",[1],23 (70) n (%)
same,"Nausea, treatment-related grade ≥3 AE",[1],2 (6) n (%)
same,On-study deaths,[1],2 (6) n (%)
same,"Pruritus generalised, treatment-related AE",[1],6 (18) n (%)
same,"Pruritus generalised, treatment-related grade ≥3 AE",[1],1 (3) n (%)
same,"Pruritus, treatment-related AE",[1],1 (3) n (%)
same,"Rash maculo-papular, treatment-related AE",[1],1 (3) n (%)
same,"Rash maculo-papular, treatment-related grade ≥3 AE",[1],0 (0) n (%)
same,"Rash, treatment-related AE",[1],7 (21) n (%)
same,"Rash, treatment-related grade ≥3 AE",[1],0 (0) n (%)
same,"Stomatitis (includes oropharyngeal pain and mucosal inflammation), treatment-related AE",[1],23 (70) n (%)
same,"Stomatitis, treatment-related grade ≥3 AE",[1],5 (15) n (%)
same,"Thrombocytopenia, treatment-related grade ≥3 AE",[1],0 (0) n (%)
same,"Vomiting, treatment-related AE",[1],18 (55) n (%)
same,"Weight decreased, treatment-related AE",[1],2 (6) n (%)
same,"Acute kidney injury, treatment-related AE",[2],0 (0) n (%)
same,"Anaemia, treatment-related AE",[2],0 (0) n (%)
same,Any AE,[2],22 (100) n (%)
same,Any AE resulting in dose modification/interruption,[2],12 (55) n (%)
same,Any AE resulting in treatment discontinuation,[2],6 (27) n (%)
same,Any SAE,[2],10 (45) n (%)
same,Any grade ≥3 AE,[2],14 (64) n (%)
same,Any treatment-related AE,[2],21 (95) n (%)
same,Any treatment-related SAE,[2],4 (18) n (%)
same,Any treatment-related grade ≥3 AE,[2],8 (36) n (%)
same,"Asthenia, treatment-related AE",[2],9 (41) n (%)
same,"Asthenia, treatment-related grade ≥3 AE",[2],3 (14) n (%)
same,"Blood creatinine increased, treatment-related AE",[2],0 (0) n (%)
same,"Decreased appetite, treatment-related AE",[2],7 (32) n (%)
same,"Dehydration, treatment-related AE",[2],0 (0) n (%)
same,"Dehydration, treatment-related grade ≥3 AE",[2],0 (0) n (%)
same,"Diarrhoea, treatment-related AE",[2],8 (36) n (%)
same,"Diarrhoea, treatment-related grade ≥3 AE",[2],0 (0) n (%)
same,"Dry mouth, treatment-related AE",[2],2 (9) n (%)
same,"Dysgeusia, treatment-related AE",[2],4 (18) n (%)
same,"Dyspepsia, treatment-related AE",[2],0 (0) n (%)
same,"Fatigue, treatment-related AE",[2],7 (32) n (%)

# From paper PMC7686313, “Phase 1 study of mTORC1/2 inhibitor sapanisertib (TAK-228) in advanced solid tumours, with an expansion phase in renal, endometrial or bladder cancer” (British Journal of Cancer, 2020)
